Laboratory results published in ChEMBL document CHEMBL1828590 (J Med Chem, 2011).
The source made the active and inactive calls. The rule behind the calls is not given here.

How the values were obtained:
[1] = Time required for attaining concentration above IC50 of HCT116 in tumor of nude BALB/c mouse xenografted with HCT116 cells at 100 mg/kg, po administered as single dose; type: ADME, organism-based, Neoplasm, HCT-116; parameters: dose 100 mg/kg, route oral; conditions: in vivo
[2] = biological target: Voltage-gated inwardly rectifying potassium channel KCNH2 (Homo sapiens, UniProt Q12809); test: Displacement of [3H]-dofetilide from human ERG receptor at 10 uM
Voltage-gated inwardly rectifying potassium channel KCNH2, sequence (Q12809 whole entry): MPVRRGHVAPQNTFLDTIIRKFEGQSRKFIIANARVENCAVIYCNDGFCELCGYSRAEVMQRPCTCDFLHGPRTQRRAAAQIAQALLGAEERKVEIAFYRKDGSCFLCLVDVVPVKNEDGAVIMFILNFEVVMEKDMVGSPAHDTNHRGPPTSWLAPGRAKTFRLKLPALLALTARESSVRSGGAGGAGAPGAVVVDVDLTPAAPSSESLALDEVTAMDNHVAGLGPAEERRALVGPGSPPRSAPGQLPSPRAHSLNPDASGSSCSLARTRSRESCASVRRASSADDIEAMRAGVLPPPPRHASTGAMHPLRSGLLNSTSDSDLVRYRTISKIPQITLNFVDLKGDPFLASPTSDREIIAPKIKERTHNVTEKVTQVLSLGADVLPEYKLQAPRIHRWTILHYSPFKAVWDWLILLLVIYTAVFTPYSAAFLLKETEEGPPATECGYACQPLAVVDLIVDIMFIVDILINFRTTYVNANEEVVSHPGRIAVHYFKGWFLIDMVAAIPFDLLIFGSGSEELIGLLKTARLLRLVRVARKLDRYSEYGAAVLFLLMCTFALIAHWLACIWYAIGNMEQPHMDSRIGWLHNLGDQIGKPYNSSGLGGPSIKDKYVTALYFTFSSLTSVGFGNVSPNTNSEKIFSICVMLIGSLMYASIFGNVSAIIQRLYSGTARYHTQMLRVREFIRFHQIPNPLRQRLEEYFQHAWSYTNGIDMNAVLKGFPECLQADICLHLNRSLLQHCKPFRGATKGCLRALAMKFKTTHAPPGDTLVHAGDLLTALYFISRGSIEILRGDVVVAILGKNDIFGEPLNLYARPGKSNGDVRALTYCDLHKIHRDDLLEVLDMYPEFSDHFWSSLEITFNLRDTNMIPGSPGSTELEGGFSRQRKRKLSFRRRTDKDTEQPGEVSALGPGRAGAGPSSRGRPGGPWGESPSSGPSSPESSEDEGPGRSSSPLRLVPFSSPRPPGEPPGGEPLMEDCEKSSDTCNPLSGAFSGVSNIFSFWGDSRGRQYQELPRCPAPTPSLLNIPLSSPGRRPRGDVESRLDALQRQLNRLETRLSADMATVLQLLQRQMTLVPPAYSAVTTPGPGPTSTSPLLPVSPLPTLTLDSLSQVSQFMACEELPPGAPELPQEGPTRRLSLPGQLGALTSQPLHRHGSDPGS

[3] = biological target: Matrix metalloproteinase-9 (Homo sapiens) (UniProt P14780); test: Inhibition of MMP9 at 10 uM
Matrix metalloproteinase-9 (Homo sapiens), sequence (P14780 whole entry): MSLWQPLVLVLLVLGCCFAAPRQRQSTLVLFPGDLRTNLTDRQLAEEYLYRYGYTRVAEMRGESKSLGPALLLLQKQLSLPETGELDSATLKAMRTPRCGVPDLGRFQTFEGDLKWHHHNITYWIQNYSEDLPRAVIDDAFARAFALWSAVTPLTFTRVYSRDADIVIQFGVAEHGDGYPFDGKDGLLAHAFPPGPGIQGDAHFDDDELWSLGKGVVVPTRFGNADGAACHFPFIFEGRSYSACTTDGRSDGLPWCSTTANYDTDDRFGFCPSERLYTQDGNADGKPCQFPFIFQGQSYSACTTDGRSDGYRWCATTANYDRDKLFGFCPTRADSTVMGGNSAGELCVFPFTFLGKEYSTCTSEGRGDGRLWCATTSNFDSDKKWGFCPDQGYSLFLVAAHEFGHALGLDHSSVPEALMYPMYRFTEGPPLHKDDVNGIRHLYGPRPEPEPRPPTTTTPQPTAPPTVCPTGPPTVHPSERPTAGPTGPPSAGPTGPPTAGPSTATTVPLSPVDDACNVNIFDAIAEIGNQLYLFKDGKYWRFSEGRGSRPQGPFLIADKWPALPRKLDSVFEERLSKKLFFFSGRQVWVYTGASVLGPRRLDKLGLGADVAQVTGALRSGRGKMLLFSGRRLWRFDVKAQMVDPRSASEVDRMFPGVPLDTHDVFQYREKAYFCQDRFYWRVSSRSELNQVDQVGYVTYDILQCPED

HCT-116 = test: Antitumor activity against human HCT116 cells xenografted in nude BALB/c mouse assessed as tumor growth inhibition at 100 mg/kg, po qd for 21 days measured on day 15 measured on day 15; type: functional; conditions: read-out: TGI
[4] = Half life in mouse liver microsomes; type: ADME, Microsome; conditions: liver microsomes
[5] = Solubility of the compound in 0.9% NaCl; type: physicochemical
[6] = Solubility of the compound in 1% methylcellulose/0.1% Tween 80; type: physicochemical
[7] = Kinetic solubility of the compound at pH 7 with […] DMSO; type: physicochemical; conditions: buffer, read-out: Kinetic_solubility
[8] = 1-Octanol-sodium phosphate buffer distribution coefficient, log D of the compound at pH 7.4; type: physicochemical; conditions: 1-octanol/sodium phosphate buffer, read-out: logD
[9] = Apparent permeability from basolateral to apical side of human Caco2 cells; type: ADME, cell-based; conditions: Caco-2
[10] = Cmax in Wistar rat at 10 mg/kg, po; type: ADME, organism-based; parameters: dose 10 mg/kg, route oral; conditions: in vivo
Mus musculus [11] = test: Toxicity in nude BALB/c mouse xenografted with human HCT116 cells assessed as mouse survival at 200 mg/kg, po QD for 21 days measured on day 22; type: organism-based, HCT-116; parameters: dose 200 mg/kg, route oral; conditions: in vivo, 504 h
[12] = AUC (0 to infinity) in Wistar rat at 10 mg/kg, po; type: ADME, organism-based; parameters: time infinity, dose 10 mg/kg, route oral; conditions: plasma
[13] = Terminal half life in Beagle dog at 2 mg/kg, iv; type: ADME, organism-based, Canis lupus familiaris; parameters: dose 2 mg/kg, route intravenous; conditions: in vivo, read-out: beta t1/2 (converted)
[14] = AUC (0 to infinity) in Beagle dog at 2 mg/kg, iv; type: ADME, organism-based, Canis lupus familiaris; parameters: time infinity, dose 2 mg/kg, route intravenous; conditions: plasma
[15] = Tmax in Beagle dog at 10 mg/kg, po; type: ADME, organism-based, Canis lupus familiaris; parameters: dose 10 mg/kg, route oral; conditions: in vivo
PC-3 = test: Antiproliferative activity against human PC3 cells; type: functional, cell-based
A2780 = test: Antitumor activity against human A2780 cells xenografted in nude BALB/c mouse assessed as tumor growth inhibition at 50 mg/kg, po qd for 21 days measured on day 9; type: functional; conditions: read-out: TGI
Mus musculus [16] = test: Toxicity in nude BALB/c mouse xenografted with human PC3 cells assessed as maximum body weight loss at 50 mg/kg, po QD for 21 days measured on day 17; type: organism-based, PC-3; parameters: dose 50 mg/kg, route oral; conditions: in vivo, 504 h
Mus musculus [17] = test: Toxicity in nude BALB/c mouse xenografted with human PC3 cells assessed as mortality at 50 mg/kg, po QD for 21 days measured on day 22; type: organism-based, PC-3; parameters: dose 50 mg/kg, route oral; conditions: in vivo, 504 h
Mus musculus [18] = test: Toxicity in nude BALB/c mouse xenografted with human Ramos cells assessed as maximum body weight loss at 50 mg/kg, po QD for 21 days measured on day 12; type: organism-based; parameters: dose 50 mg/kg, route oral; conditions: in vivo, 504 h
MV4-11 [19] = test: Antitumor activity against human MV4-11 cells xenografted in nude BALB/c mouse assessed as tumor growth inhibition at 50 mg/kg, po qd for 21 days measured on day 21; type: functional; conditions: MV4-11, 504 h, read-out: TGI
MV4-11 [20] = test: Antitumor activity against human MV4-11 cells xenografted in nude BALB/c mouse assessed as tumor growth inhibition at 25 mg/kg, po qd for 21 days measured on day 21; type: functional; conditions: MV4-11, 504 h, read-out: TGI
Mus musculus [21] = test: Toxicity in nude BALB/c mouse xenografted with human MV4-11 cells assessed as mortality at 50 mg/kg, po QD for 21 days measured on day 21; type: organism-based; parameters: dose 50 mg/kg, route oral; conditions: in vivo, 504 h
Mus musculus [22] = test: Toxicity in nude BALB/c mouse xenografted with human MV4-11 cells assessed as mortality at 25 mg/kg, po QD for 21 days measured on day 21; type: organism-based; parameters: dose 25 mg/kg, route oral; conditions: in vivo, 504 h

CCCCc1nc2cc(/C=C/C(=O)NO)ccc2n1CCN(CC)CC.Cl.Cl
Time [1]: 7.1 h | inhibition (INH) [2]: Not Active | inhibition [3]: inactive | inhibition in vivo at 100 mg/kg (HCT-116): 97% | half-life [4]: 27 min | solubility [5]: > 50 mg/mL | solubility [6]: > 25 mg/mL | solubility kinetic [7]: > 200 µM | logD [8]: 2.07 | Papp B→A [9]: 19.4 ×10⁻⁶ cm/s | Cmax [10]: 139 nM | Activity (Mus musculus [11]): Toxic | AUC(0-inf) [12]: 0.181 µM·h | half-life [13]: 234 min | AUC(0-inf) [14]: 3.22 µM·h | Tmax [15]: 45 min | IC50 (PC-3): 340 nM | inhibition in vivo at 50 mg/kg (A2780): 44% | Activity (Mus musculus [16]): 7.7% | Activity (Mus musculus [17]): Non-toxic | Activity (Mus musculus [18]): 3.7% | inhibition in vivo at 50 mg/kg (MV4-11 [19]): 114% | inhibition in vivo at 25 mg/kg (MV4-11 [20]): 61% | Activity (Mus musculus [21]): Non-toxic | Activity (Mus musculus [22]): Non-toxic
